Data: US20080299239A1, “Inhibitor of Glucose Absorption and Method for Producing the Same” (NICHIREI FOODS INC., priority 2003, published 2008)

Test system: Caco-2 cells
Test: Test of glucose uptake by cultured Caco-2 cells derived from human intestinal tract
Assay type: cell-based
Conditions: 250 μg/ml, 15 min preincubation, 10 min incubation, differentiated Caco-2 cells; for glucose transportation (3H-labeled glucose uptake): FIG. 1, relative to control; for 3-O-methyl glucose transportation (3H-labeled uptake): FIG. 2, relative to control
Method: Cultured Caco-2 cells derived from human intestinal tracts were monolayer-cultured on a plate for about 10 days and then differentiated. A DMEM medium containing 10% fetal calf serum was used. Pigment 1 and pigment 2 (250 μg/ml each) were added to the differentiated Caco-2 cells, the resultants were preincubated for 15 minutes, and ^3H-labeled glucose or 3-O-methyl glucose was then added thereto, followed by incubation for 10 minutes. ^3H incorporated into the cells was analyzed to determine the amount of glucose or methyl glucose transported.

`CC1O[C@@H](Oc2cc3c(O)cc(O)cc3[o+]c2-c2ccc(O)cc2)[C@@H](O)C(O)[C@H]1O` (stereo partly shown) [pigment 2, pelargonidin-3-rhamnoside] was tested, and the “glucose transportation (3H-labeled glucose uptake)” value was “specifically inhibited” and the “3-O-methyl glucose transportation (3H-labeled uptake)” value was “specifically inhibited”.

For `C[C@@H]1O[C@@H](Oc2cc3c(O)cc(O)cc3[o+]c2-c2ccc(O)c(O)c2)[C@H](O)[C@H](O)[C@H]1O.[Cl-]` [pigment 1, cyanidin-3-rhamnoside], the “glucose transportation (3H-labeled glucose uptake)” value was “specifically inhibited” and the “3-O-methyl glucose transportation (3H-labeled uptake)” value was “specifically inhibited”.
